Measured values from article PMC9414584, “Synthesis and Biological Evaluation of Indole-2-Carboxamides with Potent Apoptotic Antiproliferative Activity as EGFR/CDK2 Dual Inhibitors” (Pharmaceuticals, 2022).
“And” between values parts separate entries of the source, which are not always exact repeats. Identical values can stand only once.

Legend:
[1] = Cell viability assay (MTT) on MCF-10A cells; type: cell-based; conditions: human, MCF-10A mammary gland epithelial cells
Procedure: (§1) The MCF-10A (human mammary gland epithelial) cell line was used in the cell viability experiment. Compounds 5a–k, 6a–c, and 7 were incubated with MCF-10A cells for 4 days at 50 µM concentration, and the viability of cells was determined using the 3-(4,5-dimethylthiazol-2-yl)-2,5-diphenyltetrazolium bromide (MTT) test.. All compounds had no cytotoxic effects, and the vitality of the cells was more than 83% for most of the compounds examined.
as §1, with “test.” for “test.. All compounds had no cytotoxic effects, and the vitality of the cells was more than 83% for most of the compounds examined.”

[2] = system: epithelial cancer cell line (A-549); test: Antiproliferative MTT assay, A-549; type: cell-based; conditions: Homo sapiens, A549; A-549, MTT; read-out: Antiproliferative Activity IC50 ± SEM A-549
Source text: (§2) Using the MTT assay with doxorubicin as the reference drug, the antiproliferative activities of 5a–k, 6a–c, and 7 against four human cancer cell lines, including pancreas cancer cell line (Panc-1), breast cancer cell line (MCF-7), colon cancer cell line (HT-29), and epithelial cancer cell line (A-549) were investigated.

[3] = system: breast cancer cell line (MCF-7); test: Antiproliferative MTT assay, MCF-7; type: cell-based; conditions: Homo sapiens, MCF7; MCF-7, MTT; read-out: Antiproliferative Activity IC50 ± SEM MCF-7
Source text: as §2

[4] = system: pancreas cancer cell line (Panc-1); test: Antiproliferative MTT assay, Panc-1; type: cell-based; conditions: Homo sapiens; Panc-1, MTT; read-out: Antiproliferative Activity IC50 ± SEM Panc-1
Source text: as §2

[5] = system: colon cancer cell line (HT-29); test: Antiproliferative MTT assay, HT-29; type: cell-based; conditions: Homo sapiens; HT-29, MTT; read-out: Antiproliferative Activity IC50 ± SEM HT-29
Source text: as §2

[6] = system: four human cancer cell lines (Panc-1, MCF-7, HT-29, A-549); test: Antiproliferative MTT assay, average of four cancer cell lines (mean GI50); type: cell-based; conditions: for IC50: Homo sapiens, average of A-549, MCF-7, Panc-1, HT-29, read-out: Antiproliferative Activity IC50 Average (GI50 against the four cell lines); for fold less potent than 5e (mean GI50): ratio of mean GI50 vs compound 5e
[7] = system: Caspase-8 in MCF-7 breast cancer cell line; test: Caspase-8 level in MCF-7 cells; type: cell-based, human
[8] = system: Caspase-9 in MCF-7 breast cancer cell line; test: Caspase-9 level in MCF-7 cells; type: cell-based, human
[9] = system: Cytochrome C in MCF-7 human breast cancer cell line; test: Cytochrome C assay in MCF-7 cells; type: cell-based
Procedure: The quantity of cytochrome C within the cell is important for activating caspases and commencing the intrinsic apoptosis process. […] The findings add to the evidence that apoptosis can be attributed to Cytochrome C overexpression and activation of the intrinsic apoptotic pathway triggered by the investigated compounds.
Indole-2-carboxamide derivatives 5d, 5e, and 5h were evaluated as Cytochrome C activators in the MCF-7 human breast cancer cell line.

[10] = system: Bax in breast cancer cell line (MCF-7); test: Bax level assay in MCF-7 cells; type: cell-based, human
[11] = system: Bcl-2 in breast cancer cell line (MCF-7); test: Bcl-2 level assay in MCF-7 cells; type: cell-based, human
p53 in MCF-7 = test: p53 transcription/level in MCF-7; type: cell-based, human; conditions: MCF-7 cells
Source text: p53 is a unique protein that participates in several physiological processes such as cell metabolism, stem cell maintenance, and cell adhesion. Because p53 is frequently inactivated in cancer cells, the cells are unable to undergo apoptosis. Similarly, activating, or stabilizing p53 aids cancer cells in normalizing p53-controlled physiological processes and increasing apoptotic activity.

CDK2 enzyme = CDK2 enzyme (Homo sapiens, UniProt P24941); test: CDK2 inhibitory assay
[12] = system: Caspase-3 in MCF-7 breast cancer cell line; test: Caspase-3 level in MCF-7 cells
EGFR = EGFR (Homo sapiens, UniProt P00533); test: EGFR-TK inhibitory assay; type: biochemical; conditions: read-out: EGFR Inhibition IC50 ± SEM
EGFR, sequence (P00533 25-1210): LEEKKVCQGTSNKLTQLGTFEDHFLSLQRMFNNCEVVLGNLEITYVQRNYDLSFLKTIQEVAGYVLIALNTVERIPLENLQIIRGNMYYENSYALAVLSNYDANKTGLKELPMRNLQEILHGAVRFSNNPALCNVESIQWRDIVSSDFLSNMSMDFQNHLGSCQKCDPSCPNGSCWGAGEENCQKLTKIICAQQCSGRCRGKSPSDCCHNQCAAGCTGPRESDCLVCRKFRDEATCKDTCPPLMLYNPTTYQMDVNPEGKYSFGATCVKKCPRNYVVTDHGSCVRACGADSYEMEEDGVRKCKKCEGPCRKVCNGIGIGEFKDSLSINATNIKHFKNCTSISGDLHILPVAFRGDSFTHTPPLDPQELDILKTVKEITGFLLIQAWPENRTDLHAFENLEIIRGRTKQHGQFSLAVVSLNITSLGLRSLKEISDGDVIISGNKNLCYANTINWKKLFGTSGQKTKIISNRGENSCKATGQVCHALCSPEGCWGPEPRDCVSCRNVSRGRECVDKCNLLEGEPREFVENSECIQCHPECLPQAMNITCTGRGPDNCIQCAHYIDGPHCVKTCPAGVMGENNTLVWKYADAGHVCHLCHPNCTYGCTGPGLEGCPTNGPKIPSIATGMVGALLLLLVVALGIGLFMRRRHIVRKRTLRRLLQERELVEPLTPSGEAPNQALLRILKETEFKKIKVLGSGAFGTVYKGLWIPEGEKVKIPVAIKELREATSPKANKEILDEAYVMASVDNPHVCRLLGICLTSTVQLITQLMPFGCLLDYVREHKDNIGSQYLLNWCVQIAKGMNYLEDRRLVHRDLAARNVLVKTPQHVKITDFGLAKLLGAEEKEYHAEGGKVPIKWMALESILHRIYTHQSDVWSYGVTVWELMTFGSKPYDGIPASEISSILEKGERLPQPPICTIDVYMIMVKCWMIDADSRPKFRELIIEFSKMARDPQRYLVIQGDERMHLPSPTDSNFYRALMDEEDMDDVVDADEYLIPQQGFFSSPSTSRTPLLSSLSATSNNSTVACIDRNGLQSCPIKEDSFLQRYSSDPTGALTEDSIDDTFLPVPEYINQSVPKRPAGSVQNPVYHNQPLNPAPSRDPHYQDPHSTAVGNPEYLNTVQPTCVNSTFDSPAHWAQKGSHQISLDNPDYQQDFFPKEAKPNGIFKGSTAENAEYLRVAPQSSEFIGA

| SMILES | IC50 [2] [µM] | IC50 [3] [µM] | IC50 [4] [µM] | IC50 [5] [µM] | IC50 [6] [µM] | melting point [°C] | IC50 (CDK2 enzyme) [µM] | viability at 4 days, 50 µM [1] [%] | further results |
| --- | --- | --- | --- | --- | --- | --- | --- | --- | --- |
| Cc1c(C(=O)NCCc2ccccc2)[nH]c2ccc(Cl)cc12 [Compound 5a, 5-Chloro-3-methyl-N-phenethyl-1H-indole-2-carboxamide] | 3.7 ± 0.3 | 3.2 ± 0.3 | 3.9 ± 0.3 | 3.9 ± 0.3 | 3.7 | 182 to 184 | – | 89 | fold less potent than 5e (mean GI50) [6]: roughly four-fold |
| Cc1c(C(=O)NCCc2ccc(N(C)C)cc2)[nH]c2ccc(Cl)cc12 [Compound 5b, 5-Chloro-N-(4-(dimethylamino)phenethyl)-3-methyl-1H-indole-2-carboxamide] | 3.2 ± 0.3 | 2.9 ± 0.3 | 3.5 ± 0.3 | 3.6 ± 0.3 | 3.3 | 202 to 204 | – | 87 | – |
| Cc1c(C(=O)NCCc2ccc(N3CCCCC3)cc2)[nH]c2ccc(Cl)cc12 [Compound 5c, 5-Chloro-3-methyl-N-(4-(piperidin-1-yl)phenethyl)-1H-indole-2-carboxamide] | 1.7 ± 0.2 | 1.4 ± 0.2 | 1.8 ± 0.2 | 1.8 ± 0.2 | 1.7 | 216 to 218 | – | 87 | fold less potent than 5e (mean GI50) [6]: at least 1.8 fold; fold reduction of mean GI50 potency vs 5d ([6]; ratio of mean GI50 vs compound 5d): ≥ 1.6 fold |
| Cc1c(C(=O)NCCc2ccc(N3CCOCC3)cc2)[nH]c2ccc(Cl)cc12 [Compound 5d, 5-Chloro-3-methyl-N-(4-morpholinophenethyl)-1H-indole-2-carboxamide] | 1.05 ± 0.1 | 0.9 ± 0.1 | 1.1 ± 0.1 | 1.1 ± 0.1 | 1.05 | 210 to 212 | 0.023 ± 0.002 | 89 | Caspase-8 Conc [7]: 1.94 ng/mL; Caspase-9 Conc [8]: 16.90 ng/mL; Cytochrome C Conc [9]: 0.70 ng/mL; Bax Conc [10]: 290 pg/mL and 289.70 ± 2.50 pg/mL; Bcl-2 Conc [11]: 0.89 ng/mL; p53 Conc (p53 in MCF-7): 1375 pg/mL and 1375 ± 15 pg/mL; Caspase-3 Conc [12]: 570.00 ± 5.00 pg/mL |
| Cc1c(C(=O)NCCc2ccccc2)[nH]c2cc(Cl)ccc12 [Compound 5f, 6-Chloro-3-methyl-N-phenethyl-1H-indole-2-carboxamide] | 1.9 ± 0.2 | 1.7 ± 0.2 | 2.1 ± 0.2 | 2.1 ± 0.2 | 1.95 | 170 to 172 | – | 90 | times more potent than 5a ([6]; vs compound 5a): 1.9 times |
| Cc1c(C(=O)NCCc2ccc(N3CCCCC3)cc2)[nH]c2cc(Cl)ccc12 [Compound 5g, 6-Chloro-3-methyl-N-(4-(piperidin-1-yl)phenethyl)-1H-indole-2-carboxamide] | 4.9 ± 0.5 | 4.8 ± 0.5 | 5.2 ± 0.5 | 5.1 ± 0.5 | 5 | 218 to 220 | – | 89 | times lower antiproliferative efficacy than 5c ([6]; vs compound 5c): 3 times |
| Cc1c(C(=O)NCCc2ccc(N3CCCCC3)cc2)[nH]c2c(Cl)cc(Cl)cc12 [Compound 5h, 5,7-Dichloro-3-methyl-N-(4-(piperidin-1-yl)phenethyl)-1H-indole-2-carboxamide] | 1 ± 0.1 | 0.9 ± 0.1 | 1.2 ± 0.1 | 1.2 ± 0.1 | 1.1 | 178 to 180 | 0.011 ± 0.001 | 87 | IC50 (EGFR): 0.118 ± 0.01 µM; Caspase-8 Conc [7]: 1.88 ng/mL; Caspase-8 Fold Change ([7]; vs control cells): 9.50 fold; Caspase-9 Conc [8]: 16.65 ng/mL; Caspase-9 Fold Change ([8]; vs control cells): 17.50 fold; Cytochrome C Conc [9]: 0.65 ng/mL; Cytochrome C Fold Change ([9]; vs untreated control cells): 13 fold; Caspase-3 Conc [12]: 537.50 ± 5.00 pg/mL; Caspase-3 Fold Change ([12]; vs control untreated cells): 8.20 fold |
| Cc1c(C(=O)NCCc2ccc(N3CCOCC3)cc2)[nH]c2c(Cl)cc(Cl)cc12 [Compound 5i, 5,7-Dichloro-3-methyl-N-(4-morpholinophenethyl)-1H-indole-2-carboxamide] | 1.55 ± 0.2 | 1.3 ± 0.1 | 1.6 ± 0.2 | 1.65 ± 0.2 | 1.5 | 185 to 187 | 0.027 ± 0.003 | 90 | IC50 (EGFR): 0.137 ± 0.012 µM |

Now from value to molecule, other results behind:

| IC50 [2] [µM] | IC50 [3] [µM] | IC50 [4] [µM] | IC50 [5] [µM] | IC50 [6] [µM] | melting point [°C] | IC50 (CDK2 enzyme) [µM] | SMILES | viability at 4 days, 50 µM [1] [%] | further results |
| --- | --- | --- | --- | --- | --- | --- | --- | --- | --- |
| 1.2 ± 0.1 | 1 ± 0.1 | 1.3 ± 0.1 | 1.3 ± 0.1 | 1.2 | 198 to 200 | 0.034 ± 0.003 | Cc1c(C(=O)NCCc2ccccc2)[nH]c2c(F)cc(F)cc12 [Compound 5j, 5,7-Difluoro-3-methyl-N-phenethyl-1H-indole-2-carboxamide] | 83 | IC50 (EGFR): 0.098 ± 0.008 µM |
| 1.4 ± 0.2 | 1.2 ± 0.1 | 1.5 ± 0.2 | 1.5 ± 0.2 | 1.4 | 192 to 194 | 0.019 | Cc1c(C(=O)NCCc2ccc(N3CCCCC3)cc2)[nH]c2c(F)cc(F)cc12 [Compound 5k, 5,7-Difluoro-3-methyl-N-(4-(piperidin-1-yl)phenethyl)-1H-indole-2-carboxamide] | 87 | IC50 (EGFR): 0.129 ± 0.011 µM |
| 2.9 ± 0.3 | 2.6 ± 0.2 | 2.8 ± 0.2 | 2.9 ± 0.2 | 2.8 | 165 to 167 | – | Cc1c(C(=O)N2CCN(c3ccccc3)CC2)[nH]c2ccc(Cl)cc12 [Compound 6a, (5-Chloro-3-methyl-1H-indol-2-yl)(4-phenylpiperazin-1-yl)methanone] | 90 | – |
| 2.5 ± 0.2 | 2.3 ± 0.2 | 2.65 ± 0.2 | 2.8 ± 0.2 | 2.6 | 180 to 182 | – | Cc1c(C(=O)N2CCN(c3ccccc3)CC2)[nH]c2cc(Cl)ccc12 [Compound 6b, (6-Chloro-3-methyl-1H-indol-2-yl)(4-phenylpiperazin-1-yl)methanone] | 91 | – |
| 2.2 ± 0.2 | 2.1 ± 0.2 | 2.4 ± 0.2 | 2.5 ± 0.2 | 2.3 | 171 to 173 | – | Cc1c(C(=O)N2CCN(c3ccccc3)CC2)[nH]c2c(F)cc(F)cc12 [Compound 6c, (5,7-Difluoro-3-methyl-1H-indol-2-yl)(4-phenylpiperazin-1-yl)methanone] | 89 | – |
| 4.1 ± 0.4 | 4 ± 0.4 | 4.4 ± 0.4 | 4.6 ± 0.4 | 4.3 | 203 to 205 | – | Cc1c(C(=O)NCc2ccccc2)[nH]c2ccc(Cl)cc12 [Compound 7, N-Benzyl-5-chloro-3-methyl-1H-indole-2-carboxamide] | 91 | – |
